Measurements: ChEMBL document CHEMBL4118102 (J Med Chem, 2018)
pEC50, pIC50: −log10 of the molar value.

How the values were obtained:
[1] = biological target: T1, Neuraminidase (Influenza A virus, UniProt B4URF0)
[2] = biological target: T2, Neuraminidase (Influenza A virus, UniProt A5Z252); design: species or system Influenza A virus (A/chicken/Bangli/BBVD-563/2007(H5N1)), clade 2
[3] = biological target: T2, Neuraminidase; design: species or system Influenza A virus (A/chicken/Bangli/BBVD-563/2007(H5N1)), clade 2; remark: listed apart in the source
[4] = biological target: Neuraminidase (Influenza A virus (A/Memphis/1/1971(H3N2)), UniProt P03471); design: species or system Influenza A virus (A/Fukui/45/2004(H3N2))
Sequence of Neuraminidase (Influenza A virus (A/Memphis/1/1971(H3N2)), UniProt P03471) (P03471 whole entry): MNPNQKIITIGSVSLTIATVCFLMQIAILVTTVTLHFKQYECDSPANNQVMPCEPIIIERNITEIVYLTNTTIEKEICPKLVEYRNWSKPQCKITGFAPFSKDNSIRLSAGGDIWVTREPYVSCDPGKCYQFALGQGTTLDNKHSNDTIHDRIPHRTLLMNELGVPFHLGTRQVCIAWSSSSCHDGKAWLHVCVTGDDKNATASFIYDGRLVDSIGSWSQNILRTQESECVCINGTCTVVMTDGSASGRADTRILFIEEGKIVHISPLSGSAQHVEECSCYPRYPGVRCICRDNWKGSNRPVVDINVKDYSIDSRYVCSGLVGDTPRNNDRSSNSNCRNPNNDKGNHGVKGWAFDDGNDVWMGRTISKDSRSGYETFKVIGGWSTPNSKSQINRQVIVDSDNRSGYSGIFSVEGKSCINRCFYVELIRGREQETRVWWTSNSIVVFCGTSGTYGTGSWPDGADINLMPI

[5] = biological target: Neuraminidase (Influenza A virus (A/Memphis/1/1971(H3N2)), UniProt P03471); design: species or system Influenza A virus (A/Fukui/45/2004(H3N2)); remark: listed apart in the source
[6] = biological target: T3, Neuraminidase (Influenza B virus, UniProt Q3S340); design: species or system Influenza B virus (B/Perth/211/2001)
T3 sequence (Q3S340 whole entry): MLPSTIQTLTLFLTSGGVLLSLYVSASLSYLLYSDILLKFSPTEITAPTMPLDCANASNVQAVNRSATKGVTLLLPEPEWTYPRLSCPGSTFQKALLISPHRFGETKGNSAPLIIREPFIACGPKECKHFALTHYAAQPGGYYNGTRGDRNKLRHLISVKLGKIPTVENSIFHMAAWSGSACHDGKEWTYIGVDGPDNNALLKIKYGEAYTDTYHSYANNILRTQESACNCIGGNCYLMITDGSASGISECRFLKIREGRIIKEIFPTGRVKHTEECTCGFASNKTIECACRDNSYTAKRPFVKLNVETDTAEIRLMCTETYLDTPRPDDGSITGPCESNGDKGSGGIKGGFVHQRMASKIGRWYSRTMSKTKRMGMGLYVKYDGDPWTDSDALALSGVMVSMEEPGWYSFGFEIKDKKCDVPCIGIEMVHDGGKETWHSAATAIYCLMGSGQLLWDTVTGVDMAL

[7] = system: Influenza A virus; assay: Antiviral activity against Influenza A virus (A/Mississippi/03/01 (H1N1)) infected in MDCK cells assessed as reduction in plaque formation measured after 3 days post infection by neutral red staining-based assay; type: functional, organism-based; details: 72 h
[8] = system: Influenza A virus; assay: Antiviral activity against Influenza A virus (A/Fukui/45/04(H3N2)) infected in MDCK cells assessed as reduction in plaque formation measured after 3 days post infection by neutral red staining-based assay; type: functional, organism-based, Influenza A virus (A/Fukui/45/2004(H3N2)); details: 72 h
[9] = system: Influenza A virus; assay: Antiviral activity against Influenza A virus (A/Victoria/503/06) infected in MDCK cells assessed as reduction in plaque formation measured after 3 days post infection by neutral red staining-based assay; type: functional, organism-based
[10] = system: Influenza B virus; assay: Antiviral activity against Influenza B virus (B/Perth/211/2001) infected in MDCK cells assessed as reduction in plaque formation measured after 3 days post infection by neutral red staining-based assay; type: functional, organism-based; details: 72 h
[11] = biological target: T1, Neuraminidase; remark: listed apart in the source
[12] = biological target: T1, Neuraminidase; remark: listed apart in the source
[13] = biological target: T1, Neuraminidase; remark: listed apart in the source
[14] = biological target: T1, Neuraminidase; remark: listed apart in the source
[15] = biological target: T1, Neuraminidase; remark: listed apart in the source
[16] = biological target: T1, Neuraminidase; remark: listed apart in the source
[17] = biological target: T1, Neuraminidase; remark: listed apart in the source
[18] = biological target: Neuraminidase (Influenza A virus) (UniProt B4URF0); details: A/Mississippi/03/01 (H1N1)
[19] = biological target: Neuraminidase (Influenza A virus) (UniProt B4URF0); details: A/swine/Shepparton/6/2009 (H1N1)
[20] = biological target: Neuraminidase (Influenza A virus) (UniProt B4URF0); details: A/chicken/Vietnam/08/2004 (H5N1) clade 1
[21] = biological target: Neuraminidase (Influenza A virus) (UniProt A5Z252); details: Influenza A virus (A/chicken/Bangli/BBVD-563/2007(H5N1)); clade 2
[22] = biological target: Neuraminidase (Influenza A virus (A/Memphis/1/1971(H3N2))) (UniProt P03471); details: Influenza A virus (A/Fukui/45/2004(H3N2))
Sequence of Neuraminidase (Influenza A virus (A/Memphis/1/1971(H3N2))) (P03471 whole entry): as the sequence (P03471 whole entry) above

[23] = biological target: Neuraminidase (Influenza B virus) (UniProt Q3S340); details: Influenza B virus (B/Perth/211/2001)
Sequence of Neuraminidase (Influenza B virus) (Q3S340 as listed by the source): as the sequence (Q3S340 whole entry) above

[24] = biological target: T3, Neuraminidase; design: species or system Influenza B virus (B/Perth/211/2001); remark: listed apart in the source
[25] = Influenza A virus, A/Victoria/503/06, MDCK, 72 h

Row | Compound | pIC50 [1] | pIC50 [2] | pIC50 [3] | pIC50 [4] | pIC50 [5] | pIC50 [6] | pEC50 [7] | pEC50 [8] | pEC50 [9, 25] | pEC50 [10] | pIC50 [11] | pIC50 [12] | pIC50 [13] | T1/2 [18] [min] | T1/2 [19] [min] | T1/2 [20] [min] | T1/2 [21] [min] | T1/2 [22] [min] | T1/2 [23] [min] | pIC50 [24] | also measured
1 | CC(=O)N[C@@H]1[C@@H](O)[C@@H](F)[C@](F)(C(=O)O)O[C@H]1[C@H](O)CCO | 5.58 | 4.61 | 4.55 | 4.54 | 5.30 | 5.12 | 5.00 | ≤ 4.00 | ≤ 4.00 | 4.00 to 5.00 | 5.08 | 4.59 | 4.65 | 30.4 | 17.8 | 19.4 | 23.6 | 25.1 | 186 | – | pIC50 [14]: 4.59; pIC50 [15]: 4.66; pIC50 [16]: 4.66; pIC50 [17]: 4.77
2 | CC(=O)N[C@@H]1C[C@@H](F)[C@](F)(C(=O)O)O[C@H]1[C@H](O)[C@H](O)CO | 7.16 | 6.23 | 6.27 | 6.50 | 6.50 | 7.12 | 6.00 | 4.00 | 5.00 | 6.00 | 7.32 | 6.37 | 6.31 | 26.7 | 11.6 | 13.7 | 10.6 | 13.4 | 29.2 | 7.57 | pIC50 [14]: 6.32; pIC50 [15]: 6.31; pIC50 [16]: 6.01; pIC50 [17]: 5.86
3 | CC(=O)N[C@H]1[C@H]([C@H](O)[C@H](O)CO)OC(C(=O)O)=C[C@@H]1NC(=N)N [ZANAMIVIR] | – | – | – | – | – | – | ≥ 9.00 | 7.00 | 9.00 to 10.00 | 8.00 | – | – | – | – | – | – | 72.8 | – | – | – | –
4 | CC(=O)N[C@@H]1[C@@H](O)[C@@H](F)[C@](F)(C(=O)O)O[C@H]1C[C@H](O)CO | – | – | – | – | – | 6.64 | 6.00 to 7.00 | 4.00 to 5.00 | – | 5.00 to 6.00 | – | – | – | 29.2 | 15.8 | 15 | 12.3 | 13.9 | 68.7 | 7.40 | pEC50 ([9]; mdck): 5.00
5 | CC(=O)N[C@@H]1[C@@H](O)[C@@H](F)[C@](F)(C(=O)O)O[C@H]1[C@H](O)[C@H](O)CO | – | 6.06 | 6.05 | – | – | 6.38 | 6.00 | 4.00 | 4.00 | 6.00 | – | – | – | 24.8 | 11.8 | 12 | 8.5 | 17.6 | 43.6 | 7.19 | –
6 | CC(=O)N[C@@H]1[C@@H](O)[C@@H](F)[C@](F)(C(=O)O)O[C@H]1[C@H](O)[C@@H](C)O | – | – | – | – | – | 5.04 | 4.00 to 5.00 | – | ≤ 4.00 | 4.00 to 5.00 | – | – | – | 37.5 | 24.5 | 17.2 | 16.9 | 29.7 | > 240 | – | –
